Results taken from US7109193B2, “Tricyclic diazepines tocolytic oxytocin receptor antagonists” (Wyeth, priority 2001, dated 2006).

The compounds below were run against T1, human vasopressin V2 receptor subtype (Homo sapiens, UniProt P30518) (assay: Vasopressin binding in Chinese Hamster Ovary cell membranes expressing human vasopressin V2 subtype receptors). Conditions: 100 nM, CHO cell membranes, [3H]arginine vasopressin, values without parentheses.
T1 construct: host or cells: CHO cells (pZeoSV vector)
T1 sequence (P30518 whole entry): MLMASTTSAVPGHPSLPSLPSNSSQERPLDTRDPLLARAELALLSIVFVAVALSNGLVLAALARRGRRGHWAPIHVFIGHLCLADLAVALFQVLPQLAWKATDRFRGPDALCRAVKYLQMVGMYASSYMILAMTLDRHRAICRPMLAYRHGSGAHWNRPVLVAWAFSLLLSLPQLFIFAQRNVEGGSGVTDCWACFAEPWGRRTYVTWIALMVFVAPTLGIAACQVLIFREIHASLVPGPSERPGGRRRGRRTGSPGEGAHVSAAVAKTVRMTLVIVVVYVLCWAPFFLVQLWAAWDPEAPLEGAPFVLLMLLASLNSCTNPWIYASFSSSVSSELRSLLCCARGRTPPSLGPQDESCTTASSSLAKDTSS
Method: Vasopressin Binding in Chinese Hamster Ovary Cell Membranes Expressing Human Vasopressin V2 Subtype Receptors
Chinese Hamster Ovary (CHO) cells stably transfected with the human V2 subtype receptors were obtained from M. Thibonnier, Case Western Reserve University School of Medicine, Cleveland, Ohio.
A. Passaging and Amplification of Cells:
The trypsin is removed by aspiration and the cells dislodged by tapping. Cell Culture medium (e.g. 30 mL for 1:30 split) is immediately added and mixed well to inactivate trypsin. 1 mL of detached cells is added to new culture flasks containing fresh Cell Culture medium (e.g. into 25 mL per T-150 flask), and mixed gently. The cells are incubated at 37° C. in 5% CO2. The medium is changed at 3 to 4 day interval (or as appropriate). […] All steps are done under sterile conditions. B. Membrane Preparation: The cells are washed twice gently with Hank's Balanced Salt solution (e.g. use 10 mL per T-150 flask). […] The contents are transferred to centrifuge tubes (50 mL) kept in ice bath. All subsequent steps are done at 4° C. The tubes are centrifuged at 300×g for 15 min (1380 rpm on SORVAL, Model RT6000D, using the rotor for 50 mL tubes). The supernatant is discarded and the cells suspended in homogenizing buffer (10 mM Tris-HCl containing 0.25 M sucrose and 1 mM EDTA, pH 7.4) ensuring that the volume of the buffer is about ten times the volume of the cell pellet. The cells are pooled into a centrifuge tube (50 mL) and homogenized with a Polytron at setting 6 for 10 sec. The homogenate is transferred into a Potter-Elvjehm homogenizer and homogenized with 3 strokes. The homogenate is centrifuged at 1500×g for 60 min at 4° C. (3100 rpm using SORVAL, model RT6000D, using the rotor for 50 mL tubes). The pellet is discarded. The supernatant is centrifuged at 100,000×g for 60 min. at 4° C. (Beckman L8-80M ultracentrifuge; spin at 37,500 rpm with rotor type 70 Ti for 50 mL tubes; 38,000 rpm with type 80Ti for 15 mL tubes; or 35,800 rpm with rotor type 45Ti). The supernantant is discarded and the pellet suspended in 3 to 4 mL of Tris buffer (50 mM TRIS-HCl, pH 7.4). The protein content is estimated by the Bradford or Lowry method. The volume of the membrane suspension is adjusted with the membrane buffer (50 mM Tris-HCl containing 0.1% BSA and 0.1 mM PMSF) to give 3.0 mg/mL (or as appropriate) of protein. The membranes are aliquoted and stored at −70° C. C. Radioligand Binding Assay: In wells of a 96-well format microtiter plate, is added 90, 110 or 130 μL (to make up a final volume of 200 μL) of assay buffer containing 50 mM of Tris-HCl (pH 7.4), […], 1 mg % aprotinin, 1 mg % leupeptin, 2 mg % 1,10-phenanthroline, 10 mg % trypsin inhibitor, and 0.1 mM PMSF. The inhibitors are added on the day of the experiment. The components are mixed at room temperature, and then kept in ice bath following adjustment of the pH to 7.4. […] For vasopressin and other peptide ligands 20 μL of 50% DMSO is added and the assay buffer volume is adjusted accordingly. To each well is added 50 μL of frozen membrane suspension thawed immediately prior to use and diluted in assay buffer to the required concentration (equivalent to 25 to 50 μg of protein/well as needed). 20 μL of 8 nM [^3H]arginine vasopressin ligand in the assay buffer, prepared just before use is added and incubated at room temperature for 60 min. shaking the plate on a mechanical shaker for the first 15 min. The incubation is stopped by rapid filtration of the plate contents followed by wash with ice-cold buffer (50 mM Tris-HCl, pH 7.4) using a cell harvester (Tomtek and Printed filtermat-B filter paper). The filter paper is thoroughly dried (7–12 min. in a microwave oven) and impregnated with MeltiLex B/H melt-on scintillation wax sheets and the radioactivity counted in a betaplate scintillation counter.
COc1ccccc1-c1ccc(C(=O)N2Cc3ccc(C(=O)N4CCC(N5CCCC5)CC4)n3Cc3ccccc32)cc1OC [Example 145, {10-[(2,2′-Dimethoxy[1,1′-biphenyl]4-yl)carbonyl]-10,11-dihydro-5H-pyrrolo[2,1-c][1,4]benzodiazepin-3-yl}[4-(1-pyrrolidinyl)-l-piperidinyl]methanone] was tested, and the “V2 % inhibition @ 100 nM” value was −5%. COc1cccc(-c2cc(OC)c(C(=O)N3Cc4ccc(C(=O)N5CCC(N6CCCCC6)CC5)n4Cc4ccccc43)cc2Cl)c1 [Example 117, {10-[(6-Chloro-3-methoxy-3′-methoxy[1,1′-biphenyl]-4-yl)carbonyl]-10,11-dihydro-5H-pyrrolo[2,1-c][1,4]benzodiazepin-3-yl}[4-(1-piperidinyl)-1-piperidinyl]methanone] gave an inhibition at 0.1 µM of 14%. With COc1cccc(-c2cc(OC)c(C(=O)N3Cc4ccc(C(=O)NCCCn5ccnc5)n4Cc4ccccc43)cc2Cl)c1 [Example 130, 10-[(6-Chloro-3,3′-dimethoxy[1,1′-biphenyl]-4-yl)carbonyl]-N-[3-(1H-imidazol-1-yl)propyl]-10,11-dihydro-5H-pyrrolo[2,1-c][1,4]benzodiazepine-3-carboxamide] the inhibition at 0.1 µM was 5%. For COc1cccc(-c2ccc(C(=O)N3Cc4ccc(C(=O)N5CCC(N6CCCC6)CC5)n4Cc4ccccc43)cc2C)c1 [Example 139, {10-[(3′-Methoxy-2-methyl[1,1′-biphenyl]-4-yl)carbonyl]-10,11-dihydro-5H-pyrrolo[2,1-c][1,4]benzodiazepin-3-yl}[4-(1-pyrrolidinyl)-1-piperidinyl]methanone], the inhibition at 0.1 µM was 12%. For COc1cc2c(cc1OC)N(C(=O)c1ccc(-c3ccccc3C(F)(F)F)c(C)c1)Cc1ccc(C(=O)N3CCC(=O)CC3)n1C2 [Example 14, 7,8-Dimethoxy-10-{[2-methyl-2′-(trifluoromethyl)-[1,1′-biphenyl]-4-yl]carbonyl}-[(10,11-dihydro-5H-pyrrolo[2,1-c][1,4]benzodiazepin-3-yl)carbonyl]-4-piperidinone], the “V2 % inhibition @ 100 nM” value was −3%. Cc1ccccc1-c1ccc(C(=O)N2Cc3ccc(C(=O)NCCN4CCCCC4)n3Cc3ccccc32)cc1C [Example 150, 10-[(2,2′-Dimethyl[1,1′-biphenyl]-4-yl)carbonyl]-N-[2-(1-piperidinyl)ethyl]-10,11-dihydro-5H-pyrrolo[2,1-c][1,4]benzodiazepine-3-carboxamide] was tested, and the inhibition at 0.1 µM was 18%. For Cc1ccccc1-c1ccc(C(=O)N2Cc3ccc(C(=O)N4CC[C@@H](N(C)C)C4)n3Cc3ccccc32)cc1 [Example 280, [(3R)-3-(Dimethylamino)pyrrolidinyl]{10-[(2′-methyl[1,1′-biphenyl]-4-yl)carbonyl]-10,11-dihydro-5H-pyrrolo[2,1-c][1,4]benzodiazepin-3-yl}methanone], the “V2 % inhibition @ 100 nM” value was 6%. Work on COc1cccc(-c2cc(OC)c(C(=O)N3Cc4ccc(C(=O)N5CCC(N6CCCC6)CC5)n4Cc4ccccc43)cc2Cl)c1 [Example 143, {10-[(6-Chloro-3,3′-dimethoxy[1,1′-biphenyl]-4-yl)carbonyl]-10,11-dihydro-5H-pyrrolo[2,1-c][1,4]benzodiazepin-3-yl}[4-(1-pyrrolidinyl)-1-piperidinyl]methanone] yielded an inhibition at 0.1 µM of 7%. With COC(=O)c1ccc2c(c1)N(C(=O)c1ccc(-c3ccccc3C(F)(F)F)c(C)c1)Cc1cccn1C2 [Example 26, Methyl 10-{[2-methyl-2′-trifluoromethyl-[1,1′-biphenyl]-4-yl]carbonyl}-10,11-dihydro-5H-pyrrolo[2,1-c][1.4]benzodiazepine-8-carboxylate] the “V2 % inhibition @ 100 nM” value was 3%. With COc1cc(C(=O)N2Cc3ccc(C(=O)N4CCC[C@H]4CN4CCCC4)n3Cc3ccccc32)ccc1-c1ccccc1Cl [Example 33, {[10-(2-Methoxy)-2′-chloro-[1,1′-biphenyl]-4-yl]carbonyl}-[(2S)-[(2-pyrrolidin-1-yl)methyl]pyrrolidin-1-yl]-10,11-dihydro-5H-pyrrolo[2,1-c][1,4]benzodiazepin-3-yl-methanone] the “V2 % inhibition @ 100 nM” value was 11%. In the case of COc1cccc(-c2ccc(C(=O)N3Cc4ccc(C(=O)N5CCC(N6CCCCC6)CC5)n4Cc4ccccc43)cc2OC)c1 [Example 120, {10-[(2,3′-Dimethoxy-[1,1′-biphenyl]-4-yl)carbonyl]-10,11-dihydro-5H-pyrrolo[2,1-c][1,4]benzodiazepin-3-yl}[4-(1-piperidinyl)-1-piperidinyl]methanone], the inhibition at 0.1 µM is reported as 6%. Cc1ccccc1-c1ccc(C(=O)N2Cc3ccc(C(=O)NCCN4CCCCC4)n3Cc3ccccc32)cc1 [Example 153, 10-[(2′-Methyl[1,1′-biphenyl]-4-yl)carbonyl]-N-[2-(1-piperidinyl)ethyl]-10,11-dihydro-5H-pyrrolo[2,1-c][1,4]benzodiazepine-3-carboxamide] showed an inhibition at 0.1 µM of 11%. For COc1cccc(-c2ccc(C(=O)N3Cc4ccc(C(=O)NCCCn5ccnc5)n4Cc4ccccc43)cc2OC)c1 [Example 133, 10-[(2,3′-Dimethoxy[1,1′-biphenyl]4-yl)carbonyl]-N-[3-(1H-imidazol-1-yl)propyl]-10,11-dihydro-5H-pyrrolo[2,1-c][1,4]benzodiazepine-3-carboxamide], the inhibition at 0.1 µM was 8%. Cc1ccccc1-c1ccc(C(=O)N2Cc3ccc(C(=O)N4CCC(N5CCCC5)CC4)n3Cc3ccccc32)cc1 [Example 141, {10-[(2′-Methyl[1,1′-biphenyl]-4-yl)carbonyl]-10,11-dihydro-5H-pyrrolo[2,1-c][1,4]benzodiazepin-3-yl}[4-(1-pyrrolidinyl)-1-piperidinyl]methanone] gave an inhibition at 0.1 µM of 8%. COc1cc(C(=O)N2Cc3ccc(C(=O)N4CCC(N5CCCC5)CC4)n3Cc3ccccc32)ccc1-c1cccc2ccccc12 [Example 144, {10-[3-Methoxy-4-(1-naphthyl)benzoyl]-10,11-dihydro-5H-pyrrolo[2,1-c][1,4]benzodiazepin-3-yl}[4-(1-pyrrolidinyl)-1-piperidinyl]methanone] was tested, and the inhibition at 0.1 µM was 3%. COc1cc(C(=O)N2Cc3ccc(C(=O)N4CC[C@@H](N(C)C)C4)n3Cc3ccccc32)ccc1-c1ccccc1C [Example 281, [(3R)-3-(Dimethylamino)pyrrolidinyl]{10-[(2-methoxy-2′-methyl[1,1′-biphenyl]-4-yl)carbonyl]-10,11-dihydro-5H-pyrrolo[2,1-c][1,4]benzodiazepin-3-yl}methanone] was tested, and the “V2 % inhibition @ 100 nM” value was −9%. COc1cc(-c2ccccc2C)c(Cl)cc1C(=O)N1Cc2ccc(C(=O)NCCN3CCCCC3)n2Cc2ccccc21 [Example 155, 10-[(6-Chloro-3-methoxy-2′-methyl[1,1′-biphenyl]-4-yl)carbonyl]-N-[2-(1-piperidinyl)ethyl]-10,11-dihydro-5H-pyrrolo[2,1-c][1,4]benzodiazepine-3-carboxamide] showed an inhibition at 0.1 µM of 15%. COc1cccc(-c2cc(OC)c(C(=O)N3Cc4ccc(C(=O)N5CC[C@@H](N(C)C)C5)n4Cc4ccccc43)cc2Cl)c1 [Example 275, {10-[(6-Chloro-3,3′-dimethoxy[1,1′-biphenyl]-4-yl)carbonyl]-10,11-dihydro-5H-pyrrolo[2,1-c][1,4]benzodiazepin-3-yl}[(3R)-3-(dimethylamino)pyrrolidinyl]methanone] was tested, and the “V2 % inhibition @ 100 nM” value was 21%. COc1ccccc1-c1ccc(C(=O)N2Cc3ccc(C(=O)NCCCn4ccnc4)n3Cc3ccccc32)cc1C [Example 123, N-[3-(1H-Imidazol-1-yl)propyl]-10-[(2′-methoxy-2-methyl[1,1′-biphenyl]-4-yl)carbonyl]-10,11-dihydro-5H-pyrrolo[2,1-c][1,4]benzodiazepine-3-carboxamide] was tested, and the inhibition at 0.1 µM was 15%.
